Calls of active or inactive are those of the source.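 Rule for the calls: active = compounds giving half or more protection of infected cells from virus-caused growth loss, again on retest; inactive = the rest.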
System: CEM cells HIV-1 protection, formazan growth assay
Assay: NCI AIDS Antiviral Assay
Details: for IC50: measured here: growth of uninfected CEM cells
Procedure, shortened: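 Protection of CEM cells against HIV-1 was scored from cell growth (soluble formazan) across five concentrations, with parallel uninfected cells. Lack of protection may reflect toxicity.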

| Structure (SMILES) | EC50 | IC50 | outcome |
| --- | --- | --- | --- |
| CCCCCCCCCCCC1=c2o[nH]c2=C(c2ccccn2)C(=O)C1=O | > 19.5 µM | > 19.5 µM |  |
| CCSc1nn(-c2c3ccccc3nc3ccccc23)c(=S)s1 | > 200 µM | 102 µM |  |
| CC[n+]1cnc(N)c2c(-c3ccc(Cl)cc3)cn(-c3ccc(C)cc3)c21 | > 200 µM | 12.3 µM |  |
| CCc1c2cc(OC)c(OC)cc2cc2c3cc(OC)c(OC)cc3cc[n+]12 (tested in a mixture with another compound) | > 234 µM | 33.9 µM |  |
| Cc1c([N+](=O)[O-])oc2c1C(=O)N([N+](=O)[O-])CCC2 | > 89.1 µM | > 89.1 µM |  |
| CC1(C)C(=NNC(=S)NN)C(C)(C)C1=NNC(=S)NN | > 794 µM | 151 µM |  |
| COc1ccc(OCc2nc3ccccc3[nH]2)cc1 | > 200 µM | > 200 µM |  |
| CC(=O)CCC(NC(C)=O)(C(=O)O)C(=O)O | > 200 µM | > 200 µM |  |
| CCC1NC(=O)C1NC(=O)OC (stereo unspecified) |  |  | inactive |
| O=[N+]([O-])c1nccn1CCC[n+]1cccc2ccccc21 | > 200 µM | > 200 µM |  |
| CCN(CCCl)c1cc(C(=O)NCCCN(C)CCCNC(=O)c2cc(N(CC)CCCl)c([N+](=O)[O-])cc2[N+](=O)[O-])c([N+](=O)[O-])cc1[N+](=O)[O-] | > 200 µM | 10.7 µM |  |
| N#Cc1c(N)nc([Se]CC(=O)c2ccc(Cl)cc2)c(C#N)c1-c1ccco1 | > 200 µM | 141 µM |  |
| COc1c2occc2c(N=Cc2ccccn2)c2ccc(=O)oc12 | > 39.8 µM | > 39.8 µM |  |
| C[Se]CCC1OC[C@H]2O[C@@H](n3cc(C)c(=O)[nH]c3=O)C[C@H]2N1O (stereo partly specified) |  |  | active |
| Cc1c(C(=O)c2ccccc2C(=O)O)c2ccccc2n1C |  |  | inactive |
| O=C1C(O)=C(c2ccccc2)C(=O)C(O)=C1c1ccccc1 | > 85.1 µM | 43.7 µM |  |
| O=C1CC2C=C(S(=O)(=O)c3ccccc3)C1N(Cc1ccccc1)C2=O (stereo unspecified) |  |  | inactive |
| CC1=NOC(=O)/C1=C/c1ccccc1O | > 178 µM | > 178 µM |  |

| Structure (SMILES) | EC50 | IC50 | outcome |
| --- | --- | --- | --- |
| CC1(C)N=C(C(N)=O)c2ncn(N)c2N1 | > 200 µM | > 200 µM |  |
| COC1/C=C/OC2(C)Oc3c(C)c(O)c4c(O)c(c(/C=N/N5CCC(N6CCCCC6)CC5)c(O)c4c3C2=O)NC(=O)C(C)=C/C=C/C(C)C(O)C(C)C(O)C(C)C(OC(C)=O)C1C (stereo unspecified) | > 75.9 µM | > 75.9 µM |  |
| COC(Cc1ccccc1)NC(C)=O (stereo unspecified) | > 200 µM | 186 µM |  |
| CCOc1cnc(C(O)(c2ccccc2)c2ccccc2)o1 | 19.1 µM | 148 µM |  |
| CCOC(=O)c1oc2cc(O)cc(O)c2c(=O)c1-c1ccc(OC)cc1 | > 200 µM | 21.9 µM |  |
| O=[N+]([O-])c1ccc(OCc2nnc(CCCCCCCCc3nnc(COc4ccc([N+](=O)[O-])cc4)o3)o2)cc1 | > 200 µM | > 200 µM |  |
| CC(C(=O)c1ccc(Cl)cc1)/C(=N/NC(=O)NN)C(=O)Nc1cccc(C(F)(F)F)c1 (stereo unspecified) | > 79.4 µM | > 79.4 µM |  |
| Nc1nc(Cl)c(N=Nc2ccc(Cl)cc2)c(NCC2(CO)CCC2)n1 | > 200 µM | > 200 µM |  |
| CCN(CCCCOC(=O)c1ccc(OC)c(OC)c1)C(C)Cc1ccc(OC)cc1 (stereo unspecified) | > 200 µM | 102 µM |  |
| COC1CCC(OS(C)(=O)=O)C(C)O1 (stereo unspecified) | > 200 µM | 110 µM |  |
| N#C/C(=C\c1cc(Br)cc(Br)c1O)c1ccc([N+](=O)[O-])cc1 | > 100 µM | 13.5 µM |  |
| Cc1nc(OCc2ccccc2)c2ncn(CCO)c2n1 | > 200 µM | > 200 µM |  |
| N#CC1(O)Cc2ccccc2C1 | > 200 µM | > 200 µM |  |
| CN(C)c1ccc(N2C(=S)SC(=Nc3ccccc3)C2=Nc2ccccc2)cc1 | > 200 µM | > 200 µM |  |
| O=C1c2cccc3cc([N+](=O)[O-])cc(c23)C(=O)N1CCN1CCCC1 | > 200 µM | 0.0832 µM |  |
| O=C1C(O)=C(c2ccccc2)S(=O)(=O)C1c1ccccc1 (stereo unspecified) | > 200 µM | 79.4 µM |  |
| Cn1c(=O)c2c(nc(C[N+]3([O-])CCOCC3)n2C)n(C)c1=O | > 83.2 µM | > 83.2 µM |  |

Source: PubChem BioAssay AID179 (DTP/NCI, 2004)
